Source: patent US11547667B2 (priority 2007, dated 2023)

System: CD4 T cells from OT-II donor mice
Assay: In vivo CD4 T cell activation, CFSE dilution of transferred OT-II T cells
Set-up: species or system C57BL6J mice
Conditions: footpad injection, with CpG adjuvant, three days after immunization
Protocol: Subsequently, immunization experiments were performed by injecting one footpad with free OVA or with nanoparticles composed of either PLA or PLGA that encapsulated an equivalent amount of OVA as a model antigen. All antigenic mixtures also contained CpG (a TLR9 agonist) as an adjuvant. The animals were injected, sacrificed three days after immunization, and OT-II T cell activation was assessed by flow cytometry in single-cell suspensions from different tissues.
By contrast, activated T cells divide and in the process split the fluorescent dye evenly between the two daughter cells resulting in an incremental decrease in fluorescence intensity upon each successive division. Thus, the greater the left shift in CFSE, fluorescence the stronger T cells were activated.

In the case of “free OVA: free chicken ovalbumin (OVA), mixed with CpG adjuvant”, the “local T cell proliferation in distal lymphoid tissues (brachial lymph node, spleen)” value was “only undivided cells or cells with very low CFSE content”.
